The results in this text go back to publication PMC9848300, “Discovery of novel enasidenib analogues targeting inhibition of mutant isocitrate dehydrogenase 2 as antileukaemic agents” (Journal of Enzyme Inhibition and Medicinal Chemistry, 2023).

Where two headings read alike, the source gives them in different places.

What all share (assay): NCI 60 antitumor screening (single dose / five doses)
Common to all, as to assay type: cell-based

In one test the test system is SK-MEL-5. The note with it: Homo sapiens.
For the next test, the system named is MDA-MB-468. The note with it: Homo sapiens.
The subject of another test is MOLT-4. The note with it: Homo sapiens.
The next test has as its system CCRF-CEM. Particulars: Homo sapiens, read-out: Growth inhibition percentage (GI %).
Another test relates to SF-295. The note with it: Homo sapiens.
Setting [1] is: SK-MEL-5 (melanoma), single dose 10 μM, read-out: Growth inhibition percentage (GI %).
Setting [2] is: MDA-MB-468 (breast cancer), single dose 10 μM, read-out: Growth inhibition percentage (GI %).
Setting [3] is: MOLT-4 (leukaemia), single dose 10 μM, read-out: Growth inhibition percentage (GI %).
Where [4] appears, read: CCRF-CEM (leukaemia), single dose 10 μM.
Setting [5] is: SF-295 (CNS cancer), single dose 10 μM, read-out: Growth inhibition percentage (GI %).
The mark [6] stands for this setting: SK-MEL-5, read-out: Growth inhibition percentage (GI %).
The mark [7] stands for this setting: MDA-MB-468, read-out: Growth inhibition percentage (GI %).
Setting [8] is: MOLT-4, read-out: Growth inhibition percentage (GI %).
Setting [9] is: SF-295, read-out: Growth inhibition percentage (GI %).

For orientation: inhibition means the relative decrease from the control value, in per cent. Turning to `Brc1ccccc1/C=N/Nc1nc(N/N=C/c2ccccc2Br)nc(N2CCOCC2)n1` [compound 6b, 2,4-Bis[(E)-2-[(2-bromophenyl)methylidene]hydrazin-1-yl]-6-(morpholin-4-yl)-1,3,5-triazine], the inhibition at 10 µM in the test with SK-MEL-5 (setting [1]) was 30.4%; with MDA-MB-468 (setting [2]), 9.74%; with MOLT-4 (setting [3]) it was 27.4%; in the test with CCRF-CEM (setting [4]), 19.9%; in the test on SF-295 (setting [5]) it was 14.5%.

For the compound `O=[N+]([O-])c1cccc(/C=N/Nc2nc(N/N=C/c3cccc([N+](=O)[O-])c3)nc(N3CCOCC3)n2)c1` [compound 6f, 2-(Morpholin-4-yl)-4,6-bis[(E)-2-[(3-nitrophenyl)methylidene]hydrazin-1-yl]-1,3,5-triazine], the inhibition at 10 µM came out at 36.9% in the test with SK-MEL-5 (setting [6]); 1.3% in the test on MDA-MB-468 (setting [7]); 52.7% in the test on MOLT-4 (setting [8]); 58.4% in the test on CCRF-CEM (CCRF-CEM); 13.7% with SF-295 (setting [9]).

On to `Clc1cccc(/C=N/Nc2nc(N/N=C/c3cccc(Cl)c3Cl)nc(N3CCOCC3)n2)c1Cl` [compound 6h, 2,4-Bis[(E)-2-[(2,3-Dichlorophenyl)methylidene]hydrazin-1-yl]-6-(morpholin-4-yl)-1,3,5-triazine], for which the inhibition at 10 µM in the test on SK-MEL-5 (setting [1]) was found to be 15.5%; with MDA-MB-468 (setting [2]), 32.8%; in the test on MOLT-4 (setting [3]), 16.1%; in the test on CCRF-CEM (setting [4]), 16.5%; in the test on SF-295 (setting [5]), 18%.

For the compound `O=[N+]([O-])c1cc(/C=N/Nc2nc(N/N=C/c3ccc(Cl)c([N+](=O)[O-])c3)nc(N3CCOCC3)n2)ccc1Cl` [compound 6i, 2,4-Bis[(E)-2-[(4-Chloro-3-nitrophenyl)methylidene]hydrazin-1-yl]-6-(morpholin-4-yl)-1,3,5-triazine], the inhibition at 10 µM with SK-MEL-5 (setting [6]) was 3.31%; in the test on MDA-MB-468 (setting [7]), 27.1%; in the test with MOLT-4 (setting [8]), 13.3%; in the test with CCRF-CEM (CCRF-CEM), 12.2%; in the test on SF-295 (setting [9]), -7.07%.

Consider `Oc1ccc(/C=N/Nc2nc(N/N=C/c3ccc(O)c(O)c3)nc(N3CCOCC3)n2)cc1O` [compound 6j, 4-[(1e)-(2-{4-[(E)-2-[(3,4-Dihydroxyphenyl)methylidene]hydrazin-1-yl]-6-(morpholin-4-yl)-1,3,5-triazin-2-yl}hydrazin-1-ylidene)methyl]benzene-1,2-diol], for which the inhibition at 10 µM in the test with SK-MEL-5 (setting [1]) is 2.65%; with MDA-MB-468 (setting [2]) it was 6.49%; with MOLT-4 (setting [3]), -1.68%; with CCRF-CEM (setting [4]), -2.09%; in the test on SF-295 (setting [5]), -3.97%.

Consider `C(=N\Nc1nc(N/N=C/c2ccc3c(c2)OCO3)nc(N2CCOCC2)n1)/c1ccc2c(c1)OCO2` [compound 6k, 2,4-Bis[(E)-2-(2H-1,3-Benzodioxol-5-ylmethylidene)hydrazin-1-yl]-6-(morpholin-4-yl)-1,3,5-triazine], for which the inhibition at 10 µM in the test on SK-MEL-5 (setting [1]) amounted to 14%; in the test on MDA-MB-468 (setting [2]), 32.1%; in the test on MOLT-4 (setting [3]) it was 47.3%; in the test on CCRF-CEM (setting [4]) it was 41%; with SF-295 (setting [5]), 9.09%.

Consider `Brc1ccccc1/C=N/Nc1nc(N/N=C/c2ccccc2Br)nc(N2CCCCC2)n1` [compound 7b, 2,4-Bis[(E)-2-[(2-Bromophenyl)methylidene]hydrazin-1-yl]-6-(piperidin-1-yl)-1,3,5-triazine], for which the inhibition at 10 µM in the test with SK-MEL-5 (setting [1]) was 5.12%; with MDA-MB-468 (setting [2]) it was 12.4%; in the test with MOLT-4 (setting [3]) it was -12.3%; with CCRF-CEM (setting [4]) it was 0.06%; in the test on SF-295 (setting [5]), -3.22%.

For the compound `O=[N+]([O-])c1cccc(/C=N/Nc2nc(N/N=C/c3cccc([N+](=O)[O-])c3)nc(N3CCCCC3)n2)c1` [compound 7f, 2,4-Bis[(E)-2-[(3-Nitrophenyl)methylidene]hydrazin-1-yl]-6-(piperidin-1-yl)-1,3,5-triazine], the inhibition at 10 µM in the test with SK-MEL-5 (setting [6]) came out at 52.4%; in the test on MDA-MB-468 (setting [7]) it was 26.4%; in the test on MOLT-4 (setting [8]), 57.2%; in the test on CCRF-CEM (CCRF-CEM), 65.1%; in the test on SF-295 (setting [9]), 28.3%.

Regarding `Clc1cccc(/C=N/Nc2nc(N/N=C/c3cccc(Cl)c3Cl)nc(N3CCCCC3)n2)c1Cl` [compound 7h, 2,4-Bis[(E)-2-[(2,3-Dichlorophenyl)methylidene]hydrazin-1-yl]-6-(piperidin-1-yl)-1,3,5-triazine], the inhibition at 10 µM in the test on SK-MEL-5 (setting [1]) came to 0.02%; in the test with MDA-MB-468 (setting [2]), 7.19%; with MOLT-4 (setting [3]), 15.7%; in the test on CCRF-CEM (setting [4]), 28.7%; in the test on SF-295 (setting [5]) it was 7.34%.

Consider `O=[N+]([O-])c1cc(/C=N/Nc2nc(N/N=C/c3ccc(Cl)c([N+](=O)[O-])c3)nc(N3CCCCC3)n2)ccc1Cl` [compound 7i, 2,4-Bis[(E)-2-[(4-Chloro-3-nitrophenyl)methylidene]hydrazin-1-yl]-6-(piperidin-1-yl)-1,3,5-triazine], for which the inhibition at 10 µM stood at 48.9% with SK-MEL-5 (setting [6]); 31.2% with MDA-MB-468 (setting [7]); 57.7% with MOLT-4 (setting [8]); 38.7% in the test on CCRF-CEM (CCRF-CEM); 6.78% in the test on SF-295 (setting [9]).

Regarding `Oc1ccc(/C=N/Nc2nc(N/N=C/c3ccc(O)c(O)c3)nc(N3CCCCC3)n2)cc1O` [compound 7j, 4-[(1e)-(2-{4-[(E)-2-[(3,4-Dihydroxyphenyl)methylidene]hydrazin-1-yl]-6-(piperidin-1-yl)-1,3,5-triazin-2-yl}hydrazin-1-ylidene)methyl]benzene-1,2-diol], the inhibition at 10 µM worked out at 4.85% in the test with SK-MEL-5 (setting [1]); 10.2% with MDA-MB-468 (setting [2]); 6.3% with MOLT-4 (setting [3]); 9.46% with CCRF-CEM (setting [4]); 0.36% with SF-295 (setting [5]).

With `C(=N\Nc1nc(N/N=C/c2ccc3c(c2)OCO3)nc(N2CCCCC2)n1)/c1ccc2c(c1)OCO2` [compound 7k, 2,4-Bis[(E)-2-(2H-1,3-Benzodioxol-5-ylmethylidene)hydrazin-1-yl]-6-(piperidin-1-yl)-1,3,5-triazine], the inhibition at 10 µM in the test with SK-MEL-5 (setting [1]) came out at 3.15%; in the test with MDA-MB-468 (setting [2]) it was 18.4%; in the test with MOLT-4 (setting [3]), 43.7%; in the test with CCRF-CEM (setting [4]) it was 79.6%; in the test on SF-295 (setting [5]), 22.2%.

`C/C(=N\Nc1nc(N/N=C(\C)c2ccc([N+](=O)[O-])cc2)nc(N2CCOCC2)n1)c1ccc([N+](=O)[O-])cc1` [compound 8a, 2-(Morpholin-4-yl)-4,6-bis[(E)-2-[1–(4-nitrophenyl)ethylidene]hydrazin-1-yl]-1,3,5-triazine]: the inhibition at 10 µM with SK-MEL-5 (setting [6]) was 32.9%; in the test on MDA-MB-468 (setting [7]), 20.4%; in the test with MOLT-4 (setting [8]), 21.1%; in the test on CCRF-CEM (CCRF-CEM), 38.4%; in the test on SF-295 (setting [9]), 33.5%.

`O=C1Nc2ccc(Cl)cc2/C1=N\Nc1nc(N/N=C2/C(=O)Nc3ccc(Cl)cc32)nc(N2CCOCC2)n1` [compound 8b, (3E)-5-Chloro-3-[2–(4-{2-[(3E)-5-chloro-2-oxo-2,3-dihydro-1H-indol-3-ylidene]hydrazin-1-yl}6-(morpholin-4-yl)-1,3,5-triazin-2-yl)hydrazin-1-ylidene]-2,3-dihydro-1H-indol-2-one]: the inhibition at 10 µM is 53.9% with SK-MEL-5 (setting [1]); 76.4% in the test with MDA-MB-468 (setting [2]); 37.5% with MOLT-4 (setting [3]); 79.8% in the test on CCRF-CEM (setting [4]); 54.4% in the test with SF-295 (setting [5]).
